Experimental data reported in the SangsterLogP compilation.

logP | SMILES
4.27 | COc1cccc2cc(C(=O)Nc3cc(C)cc(C)n3)oc12
2.88 | Cc1cc(C)nc(NC(=O)c2cccc(C#N)c2)c1
2.35 | CC(=O)Oc1ccccc1C(=O)Nc1cc(C)cc(C)n1
4.08 | Cc1cc(C)nc(NC(=O)c2cc3ccccc3s2)c1
2.75 | Cc1cc(C)nc(NC(=O)c2ccc(C)o2)c1
4.07 | Cc1cc(C)nc(NC(=O)Cc2ccc(Br)cc2)c1
3.22 | Cc1cc(C)nc(NC(=O)c2ccc(Br)o2)c1
3.88 | Cc1cc(C)nc(NC(=O)c2cccc(Cl)c2)c1
4.77 | Cc1cc(C)nc(NC(=O)C(c2ccccc2)c2ccccc2)c1
3.13 | Cc1cc(C)nc(NC(=O)c2cccc([N+](=O)[O-])c2)c1
3.2 | Cc1cc(C)nc(NC(=S)c2ccc(C)o2)c1
2.25 | Cc1cc(C)nc(NC(=O)c2ccco2)c1
3.31 | Cc1cc(C)nc(NC(=O)c2cccc(F)c2)c1
4.04 | Cc1cc(C)nc(NC(=O)c2cccc(Br)c2)c1
2.77 | Cc1cc(C)nc(NC(=O)c2cccs2)c1
3.74 | Cc1cc(C)nc(NC(=O)c2ccc(Br)s2)c1
3.45 | Cc1cc(C)nc(NC(=S)c2ccccc2)c1
2.39 | Cc1cc(C)nc(NC(=O)c2ccc([N+](=O)[O-])o2)c1
2.42 | Cc1cc(C)nc(NC(=O)c2cccn2C)c1
3.67 | Cc1cc(C)nc(NC(=O)C(C)c2ccccc2)c1 (configuration not stated)
3.54 | Cc1cc(C)nc(NC(=O)c2cc3ccccc3o2)c1
3.09 | Cc1cc(C)nc(NC(=O)c2ccccc2)c1
